The source of these data is DBAASP.

≈ marks a conversion by molar mass, not a printed value.

Common to all, as to assay: ≥ marks a high value that may be exact or a test limit, other limits are often not marked, values filed in µg/mL are converted to µM
The subject of test [1] is Erwinia amylovora PMV 6076.
Test [2] relates to Pseudomonas syringae pv. syringae EPS 94.
Test [3] relates to Candida albicans ATCC 90028.
In test [4] the test system is Candida albicans SC5314.
The test system of test [5] is Candida krusei ATCC 6258.
Test [6] has as its system Candida parapsilosis ATCC 22019.
Test [7] deals with Acinetobacter baumannii ATCC BAA-1605.
Test [8] concerns Enterococcus faecium ATCC 700221.
Test [9] concerns Escherichia coli ATCC 25922.
The subject of test [10] is Klebsiella pneumoniae ATCC 700603.
Test [11] relates to Pseudomonas aeruginosa ATCC 27853.
Test [12] concerns Staphylococcus aureus ATCC 33591.
The subject of test [13] is Bacillus subtilis KCTC 1998.
The subject of test [14] is Pseudomonas aeruginosa ATCC 15692.
Test [15] deals with Staphylococcus aureus ATCC 25923.
The test system of test [16] is Listeria monocytogenes CMCC 54002.
Test [17] deals with Salmonella typhimurium CMCC 50013.
The test system of test [18] is Shigella dysenteriae CMCC 51302.
The subject of test [19] is Staphylococcus aureus ATCC 29213.
In test [20] the test system is Streptococcus mutans.
The test system of test [21] is Acinetobacter baumannii CCARM 12035.
Test [22] deals with Bacillus subtilis KCTC 3068.
For test [23], the system named is Enterococcus faecalis KCTC 2011.
The subject of test [24] is Escherichia coli CCARM 1229.
The subject of test [25] is Escherichia coli KCTC 1682.
Test [26] concerns Pseudomonas aeruginosa CCARM 2095.
For test [27], the system named is Pseudomonas aeruginosa KCTC 1637.
Test [28] relates to Salmonella typhimurium CCARM 8009.
In test [29] the test system is Salmonella typhimurium KCTC 1926.
For test [30], the system named is Staphylococcus aureus KCTC 1621.
Test [31] concerns Candida albicans.
In test [32] the test system is Enterococcus faecalis ATCC 29212.
Test [33] has as its system Escherichia coli UB1005.
Test [34] concerns Pseudomonas aeruginosa ATCC 9027.
For test [35], the system named is Pseudomonas aeruginosa H103.
Test [36] relates to Salmonella enterica serovar Typhimurium.
Test [37] concerns Staphylococcus aureus USA 100.
In test [38] the test system is Staphylococcus aureus USA 300.
Test [39] has as its system Staphylococcus epidermidis.

As to `CC[C@H](C)[C@H](NC(=O)[C@H](CCCCN)NC(=O)[C@H](CCCCN)NC(=O)[C@H](Cc1ccccc1)NC(=O)[C@H](CC(C)C)NC(=O)[C@H](CCCCN)NC(=O)[C@H](CCCCN)NC(=O)[C@H](C)NC(=O)[C@@H]1CCCN1C(=O)CNC(=O)[C@H](C)NC(=O)[C@H](CC(C)C)NC(=O)[C@H](Cc1ccc(O)cc1)NC(=O)[C@H](CCCCN)NC(=O)[C@H](CC(C)C)NC(=O)[C@@H](NC(=O)[C@H](CCCCN)NC(=O)[C@H](CCCCN)NC(=O)[C@H](Cc1ccccc1)NC(=O)[C@H](CC(C)C)NC(=O)[C@H](CCCCN)NC(=O)[C@@H](N)CCCCN)[C@@H](C)CC)C(=O)N[C@@H](CC(C)C)C(=O)N[C@@H](CCCCN)C(=O)N[C@@H](Cc1ccc(O)cc1)C(=O)N[C@@H](CC(C)C)C(=O)O` [KKLFKKILKYLAGPAKKLFKKILKYL], the MIC in test [1] and in test [2] was 3.54 µM (≈ 11 µg/mL) each time.

On to `CC[C@H](C)[C@H](NC(=O)CN)C(=O)N[C@@H](Cc1c[nH]c2ccccc12)C(=O)N[C@@H](CCCCN)C(=O)N[C@@H](CCCCN)C(=O)N[C@@H](Cc1c[nH]c2ccccc12)C(=O)N[C@H](C(=O)N[C@@H](CCCCN)C(=O)N[C@@H](CCCCN)C(=O)N[C@@H](Cc1c[nH]c2ccccc12)C(=O)N[C@@H](CC(C)C)C(=O)N[C@@H](CCCCN)C(=O)N[C@@H](CCCCN)C(=O)N[C@@H](CC(C)C)C(=O)N[C@@H](CCCCN)C(=O)N[C@@H](CC(N)=O)C(=O)N[C@@H](CC(C)C)C(=O)N[C@@H](Cc1ccccc1)C(N)=O)[C@@H](C)CC` [GIWKKWIKKWLKKLKNLF], for which the MIC in test [3] came to 27.1 µM (≈ 64 µg/mL); in test [4] it was 13.6 µM (≈ 32 µg/mL); in test [5], 6.79 µM (≈ 16 µg/mL); in test [6], 13.6 µM (≈ 32 µg/mL).

With `CC[C@H](C)[C@H](NC(=O)[C@H](CCCN=C(N)N)NC(=O)[C@H](CCCCN)NC(=O)[C@H](Cc1ccccc1)NC(=O)[C@H](CC(C)C)NC(=O)[C@H](CCCCN)NC(=O)[C@@H](N)CCCN=C(N)N)C(=O)N[C@@H](CC(C)C)C(=O)N[C@@H](CCCCN)C(=O)N[C@@H](Cc1ccc(O)cc1)C(=O)N[C@@H](CC(C)C)C(N)=O` [RKLFKRILKYL], the MIC in test [7] was at least 46.7 µM; in [8], at least 186 µM; in test [9], 186 µM (≈ 275 µg/mL); in test [10], 93 µM (≈ 137 µg/mL); in test [11], 93 µM (≈ 137 µg/mL); in test [12], at least 93 µM.

Turning to `CC[C@H](C)[C@H](NC(=O)[C@H](CCCCN)NC(=O)[C@H](CCCCN)NC(=O)[C@H](CC(C)C)NC(=O)[C@H](CC(C)C)NC(=O)[C@H](CCCCN)NC(=O)[C@H](CCCCN)NC(=O)[C@@H](NC(=O)[C@@H](NC(=O)[C@H](CC(=O)O)NC(=O)[C@H](Cc1ccccc1)NC(=O)[C@H](CC(C)C)NC(=O)CN)C(C)C)[C@@H](C)CC)C(=O)N[C@@H](CCCCN)C(=O)NCC(=O)N[C@@H](CC(C)C)C(N)=O` [GLFDVIKKLLKKIKGL], the MIC came out at 1.6 µM (≈ 2.9 µg/mL) in test [8], 3.1 µM (≈ 5.62 µg/mL) in test [9], 12.5 µM (≈ 22.7 µg/mL) in test [11] and 3.1 µM (≈ 5.62 µg/mL) in test [12].

In the case of `CC[C@H](C)[C@H](NC(=O)[C@H](CCCCN)NC(=O)[C@H](CO)NC(=O)[C@@H]1CCCN1C(=O)[C@H](CC(C)C)NC(=O)[C@H](CCCCN)NC(=O)[C@@H]1CCCN1C(=O)[C@H](CC(C)C)NC(=O)[C@H](CCCN=C(N)N)NC(=O)[C@H](CCCCN)NC(=O)[C@H](Cc1ccccc1)NC(=O)[C@@H](NC(=O)[C@H](CCCCN)NC(=O)[C@H](CCCCN)NC(=O)[C@H](C)N)C(C)C)C(=O)N[C@@H](Cc1c[nH]c2ccccc12)C(=O)N[C@@H](CC(N)=O)C(=O)N[C@@H](Cc1c[nH]c2ccccc12)C(=O)N[C@@H](CCCCN)C(N)=O` [AKKVFKRLPKLPSKIWNWK], the MIC in [13] stood at 1 µM (≈ 2.37 µg/mL); in test [9], 2 µM (≈ 4.73 µg/mL); in [14] it was 2 µM (≈ 4.73 µg/mL); in [15] it was 8 µM (≈ 18.9 µg/mL).

As for `CC(C)C[C@H](NC(=O)CN)C(=O)N[C@@H](CCCN=C(N)N)C(=O)N[C@@H](CCCN=C(N)N)C(=O)N[C@@H](C)C(=O)N[C@@H](CC(C)C)C(=O)N[C@@H](CC(C)C)C(=O)N[C@@H](CCCN=C(N)N)C(=O)N[C@@H](CC(C)C)C(=O)N[C@@H](CC(C)C)C(=O)N[C@@H](CCCN=C(N)N)C(=O)N[C@@H](CO)C(=O)N[C@@H](CC(C)C)C(=O)N[C@@H](CCCN=C(N)N)C(=O)N[C@@H](CCCN=C(N)N)C(=O)N[C@@H](CC(C)C)C(=O)N[C@@H](CC(C)C)C(=O)N[C@@H](CC(C)C)C(=O)N[C@@H](CCCN=C(N)N)C(=O)N[C@@H](C)C(=O)O` [GLRRALLRLLRSLRRLLLRA], the MIC in [9] came out at 8 µM (≈ 19.3 µg/mL); in test [16], 16 µM (≈ 38.7 µg/mL); in [17], 4 µM (≈ 9.66 µg/mL); in [18], 8 µM (≈ 19.3 µg/mL); in test [19], 32 µM (≈ 77.3 µg/mL); in test [20] it was 8 µM (≈ 19.3 µg/mL).

`CC(C)[C@H](NC(=O)[C@H](C)N)C(=O)N[C@@H](C)C(=O)N[C@H](C(=O)N[C@H](C(=O)NCC(=O)N[C@@H](CCC(N)=O)C(=O)N[C@@H](C)C(=O)N[C@@H](C)C(=O)N[C@H](C(=O)N[C@H](C(=O)N[C@H](C(=O)N[C@@H](CCCCN)C(N)=O)C(C)C)C(C)C)[C@@H](C)O)C(C)C)C(C)C` [AVAVVGQAATVVK]: the MIC in test [21], in test [22], in test [23], in test [24], in test [25] and in test [26] was at least 128 µM each time. Besides, the minimum inhibitory concentration (MIC) in test [27], in test [28], in test [29] and in [30] was at least 128 µM in each case.

In the case of `CC[C@H](C)[C@H](NC(=O)[C@@H](NC(=O)[C@H](Cc1c[nH]c2ccccc12)NC(=O)[C@@H](NC(=O)[C@@H](N)CCCN=C(N)N)[C@@H](C)CC)C(C)C)C(=O)N[C@@H](CCCN=C(N)N)C(=O)N[C@@H](Cc1c[nH]c2ccccc12)C(=O)N[C@@H](CCCN=C(N)N)C(N)=O` [RIWVIRWR], the MIC in test [3] was at least 100 µM; in test [31] it was 13.5 µM (≈ 16 µg/mL); in test [32], 6.75 µM (≈ 7.99 µg/mL); in test [33], 3.38 µM (≈ 4 µg/mL); in test [34], 25 µM (≈ 29.6 µg/mL); in test [35], 13.5 µM (≈ 16 µg/mL). Also, the MIC in test [36] was 13.5 µM (≈ 16 µg/mL); in test [15], 3.38 µM (≈ 4 µg/mL); in test [37] it was 12.5 µM (≈ 14.8 µg/mL); in [38], 12.5 µM (≈ 14.8 µg/mL); in test [39], 3.38 µM (≈ 4 µg/mL).
